# Reference: patent US20080199480A1, “Methods for Identifying Risk of Type II Diabetes and Treatments Thereof” (SEQUENOM, INC., priority 2004, published 2008)
# T1: EPHA3 (Homo sapiens, UniProt P29320)
# T1 construct: human EPHA3 intracellular domain (amino acids 571-986) containing juxtamembrane, kinase and SAM regions; 6xHis; made in house; host or cells: E. coli (Rosetta DE cells)
# T1 sequence (P29320 571-983 limits assumed): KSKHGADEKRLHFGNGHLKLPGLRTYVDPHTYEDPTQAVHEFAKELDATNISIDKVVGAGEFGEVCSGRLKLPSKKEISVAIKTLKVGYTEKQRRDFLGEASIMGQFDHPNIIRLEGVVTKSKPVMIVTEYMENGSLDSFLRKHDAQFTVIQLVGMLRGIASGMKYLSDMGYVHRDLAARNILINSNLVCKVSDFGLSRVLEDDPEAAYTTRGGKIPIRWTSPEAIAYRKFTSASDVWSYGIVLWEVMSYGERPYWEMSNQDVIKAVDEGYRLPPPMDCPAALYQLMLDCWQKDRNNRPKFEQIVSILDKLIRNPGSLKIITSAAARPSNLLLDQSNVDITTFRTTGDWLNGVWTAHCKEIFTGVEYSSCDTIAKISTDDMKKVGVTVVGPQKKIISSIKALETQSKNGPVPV
# T2: EPHA3 on differentiated 3T3-L1 cells (mouse) (UniProt P29319)
# T2 sequence (looked up): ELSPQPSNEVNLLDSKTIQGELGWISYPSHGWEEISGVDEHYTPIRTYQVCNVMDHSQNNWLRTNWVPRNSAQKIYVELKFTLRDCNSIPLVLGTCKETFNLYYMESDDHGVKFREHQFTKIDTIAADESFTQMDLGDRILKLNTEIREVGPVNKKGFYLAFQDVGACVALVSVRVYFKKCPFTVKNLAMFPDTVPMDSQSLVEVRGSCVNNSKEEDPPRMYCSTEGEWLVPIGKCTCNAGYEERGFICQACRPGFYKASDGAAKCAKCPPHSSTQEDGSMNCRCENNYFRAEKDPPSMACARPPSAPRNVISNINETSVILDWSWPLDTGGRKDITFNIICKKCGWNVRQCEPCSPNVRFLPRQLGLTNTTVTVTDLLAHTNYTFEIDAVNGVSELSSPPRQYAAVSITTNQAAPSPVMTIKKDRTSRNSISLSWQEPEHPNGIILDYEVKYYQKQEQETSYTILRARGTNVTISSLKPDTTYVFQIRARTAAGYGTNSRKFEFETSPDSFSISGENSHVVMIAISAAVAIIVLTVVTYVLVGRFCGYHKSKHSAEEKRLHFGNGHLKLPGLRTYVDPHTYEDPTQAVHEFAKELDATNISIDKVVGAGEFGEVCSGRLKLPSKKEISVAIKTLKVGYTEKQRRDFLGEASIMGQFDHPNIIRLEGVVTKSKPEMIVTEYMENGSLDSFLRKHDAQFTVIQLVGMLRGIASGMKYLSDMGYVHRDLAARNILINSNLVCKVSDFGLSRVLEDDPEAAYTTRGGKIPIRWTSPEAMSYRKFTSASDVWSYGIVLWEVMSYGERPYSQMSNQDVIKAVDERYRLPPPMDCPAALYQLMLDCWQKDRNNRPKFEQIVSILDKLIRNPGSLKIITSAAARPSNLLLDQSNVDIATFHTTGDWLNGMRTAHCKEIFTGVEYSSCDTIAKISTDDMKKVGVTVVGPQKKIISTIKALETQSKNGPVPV
# Assays:
# EPHA3 = biological target: T1, EPHA3; assay: DELFIA EPHA3 kinase assay (phosphorylation of biotin-Src-peptide); format: biochemical; conditions: EPHA3 30 nM, biotin-Src-peptide 1 μM, ATP 30 μM, 3 hr incubation at 37° C., read-out: EPHA3 Potency IC50
# Method: An EPHA3 enzyme construct comprised the human EPHA3 intracellular domain (amino acids 571-986) containing juxtamembrane, kinase and SAM regions. It was expressed in E. coli as a recombinant protein. 6×His and NusA expression tags were used in pET28a and pET44a vectors (Novagen), respectively. Expression was carried out in Rosetta DE cells with IPTG induction followed by recombinant protein purification on a Ni-column using imidazole elution buffer.
# The ATP concentrations are selected near the Michaelis-Menten constant (KM) for each individual kinase. Dose-response experiments are performed at ten different inhibitor concentrations in a 384-well plate format. The data are fitted to a standard four-parameter equation listed below:
# Y=Min+(Max−Min)/(1+XIC50)̂H
# These parameters are obtained by nonlinear regression algorithm built into ActivityBase software (available from ID Business Solutions Ltd., of Guildford, Surrey, UK).
# The DELFIA method is a solid-phase, non-homogeneous system that measures enzymatic activity by quantitating the phosphorylation of an immobilized substrate. The compound names are provided in the “Compositions Comprising Diabetes-Directed Molecules” section.
# In this experiment, EPHA3 (30 nM) was incubated with biotinylated substrate, biotin-Src-peptide (1 μM)+ATP (30 μM) in an assay medium (10 mM HEPES pH 7.4, 2 mM MgCl2, 10 μM MnCl2, 1.0 mM DTT, 0.01% Pluronic F-127) in the presence of test compounds. After 3 hr incubation at 37° C., the reaction was stopped (5 mM EDTA) and the substrate phosphorylation was quantified in DELFIA assay using Eu-labeled anti-phosphotyrosine antibody.
# Differentiated 3T3-L1 [1] = assay: Glucose uptake assay (insulin-mediated uptake of radioactive glucose); format: cell-based, mouse; conditions: 100 nM insulin for 10 minutes
# Text: One of the many responses of adipocytes and muscle cells after exposure, to insulin is the transport of glucose intracellularly. This transport is mediated by GLUT4, an insulin-regulatable glucose transporter. Insulin binding to insulin receptors on the cell surface results in autophosphorylation and activation of the intrinsic tyrosine kinase activity of the insulin receptor. Phosphorylated tyrosine residues on the insulin receptor and its endogenous targets activate several intracellular signaling pathways that eventually lead to the translocation of GLUT4 from intracellular stores to the extracellular membrane. Cells were plated in 6-well dishes, and grown to confluency. Cells were then differentiated with DMEM plus 10% fetal calf serum (FCS), 10 ug/mL insulin, 390 ng/mL dexamethasone and 112 ug/mL isobutylmethylxanthine for 2 days. After 2 days of differentiation, media was changed to maintenance media DMEM plus 10% FCS and 5 ug/mL insulin. Media was changed every 2 days thereafter. Cells were assayed for insulin-mediated glucose uptake 10 days after differentiation. On the day of the assay, cells were washed once with PBS, and serum starved by adding 2 mL of DMEM plus 2 mg/mL BSA for 3 hours. During serum starvation, recombinant rat ephrin-A5/Fc chimeric ligand was preclustered. […] Lysates were read in a Wallac 1450 Microbeta Liquid Scintillation and Luminescence Counter.
# Differentiated 3T3-L1 [2] = assay: Triacylglycerol (TG) assay; format: cell-based, mouse; conditions: 100 nM insulin, 2 hours
# Text: A direct metabolic consequence of glucose transport intracellularly is its incorporation into the fatty acid and glycerol moieties of triacylglycerol (TG). TGs are highly concentrated stores of metabolic energy, and are the major energy reservoir of cells. In mammals, the major site of accumulation of triacylglycerols is the cytoplasm of adipose cells. Adipocytes are specialized for the synthesis, and storage of TG, and for their mobilization into fuel molecules that are transported to other tissues through the bloodstream. It is likely that changes in the transport of glucose intracellularly can affect cytoplasmic stores of triacylglycerols.
# Cells were plated in 6-well dishes, and grown to confluency. When cells reached confluency, cells were differentiated with DMEM plus 10% fetal calf serum (FCS), 10 ug/mL insulin, 390 ng/mL dexamethasone and 112 ug/mL isobutylmethylxanthine for 2 days. After 2 days of differentiation, media was changed to maintenance media DMEM plus 10%. FCS and […] insulin. On the day of the assay (day 9 post-differentiation), cells were washed once with PBS, and serum starved by adding 2 mL of DMEM plus 2 mg/ml BSA for 3 hours. During serum starvation, recombinant rat ephrin-A5/Fc chimeric ligand was preclustered. […] The assay was read at 500-550 nm.
# [3] = test system: resistin mRNA in differentiated 3T3-L1 cells; assay: Quantitative assessment of mResistin levels (mRNA, PCR); format: cell-based, mouse; conditions: 10 nM insulin for 2 hours
# Method: Resistin is a secreted factor specifically expressed in white adipocyte. […] Elevated levels of resistin have been measured in genetically obese, and high fat fed obese mice. It is therefore thought that resistin contributes to peripheral tissue insulin unresponsiveness, one of the pathological hallmarks of diabetes.
# 3T3-L1 cells were differentiated for 3 days as previously described and maintained for three days prior to splitting. At day 5 post-differentiation, differentiated cells were plated in 10 cm dish at a cell density of 3×10^6 cells. Cells were then serum starved on day 7 after initiation of differentiation. On day 8, cells were treated with pre-clustered recombinant rat ephrin-A5/Fc chimera as described above for 10 min and treated with 10 nM insulin for 2 hours. Cells were harvested, mRNA extracted using magnetic DYNAL beads and reverse transcribed to cDNA using. Superscript First-Strand Synthesis as described by the manufacturer. The following primers: forward primer; 5′ GTCGCTTCCTGATGTCGGTCA 3′, and reverse primer, 5′ GGCCAGCCTGGACTATATGAG 3′, were used in 15 uL PCR reaction using 55 deg annealing temperature and 30 cycles of amplification.
# [4] = biological target: T2, EPHA3 on differentiated 3T3-L1 cells (mouse); assay: cell-based or functional assay
Molecule,IC50 (EPHA3) [nM],further results
COc1cc2ncnc(Nc3ccc(Cl)c(Cl)c3)c2cc1OC [sqnm-1],2000,
COc1cc2ncnc(Nc3cccc(Cl)c3)c2cc1OC [sqnm-4],4500,
COc1cc2ncnc(Nc3ccc(Cl)cc3F)c2cc1OC [sqnm-5],500,
COc1cc2c(Nc3ccc(Cl)cc3F)ncnc2cc1OCC1CCN(C)CC1 [sqnm-7],900,
COc1cc2c(Nc3cc(Cl)ccc3F)ncnc2cc1OCC1CCN(C)CC1 [sqnm-8],2000,
COc1cc2c(Nc3ccc(Cl)c(Cl)c3)ncnc2cc1OCC1CN(C2CCCC2)CCO1 (stereo not drawn) [sqnm-9],200,
COc1cc2c(Nc3ccc(Cl)cc3F)ncnc2cc1OCC1CN(C2CCCC2)CCO1 (stereo not drawn) [sqnm-10],300,
COc1cc2c(Nc3ccc(Cl)c(Cl)c3)ncnc2cc1OCC1CN(C)CCO1 (stereo not drawn) [sqnm-11],400,
COc1cc2c(Nc3ccc(Cl)c(Br)c3)ncnc2cc1OCC1CN(C)CCO1 (stereo not drawn) [sqnm-12],200,
COc1cc2c(Nc3ccc(Cl)cc3F)ncnc2cc1OCC1CN(C)CCO1 (stereo not drawn) [sqnm-14],200,
COc1cc2c(Nc3ccc(Cl)cc3F)ncnc2cc1OCC1CN(C(C)C)CCO1 (stereo not drawn) [sqnm-15],800,
Oc1cccc(Nc2ncnc3ccccc23)c1 [sqnm-16],11000,
insulin: porcine insulin used to stimulate differentiated 3T3-L1 cells,,increase in uptake of radioactive glucose (Differentiated 3T3-L1 [1]): 22 fold; increase in TG stores (Differentiated 3T3-L1 [2]): about 23%; resistin mRNA levels [3]: decrease
"recombinant rat ephrin-A5/Fc chimeric ligand, preclustered with anti-human IgG, Fc γ fragment specific antibody (Fc fusion, part only; not given: Fc part, UniProt P97605 21-203, looked up, part only) chain, part: QDPGSKVVADRYAVYWNSSNPRFQRGDYHIDVCINDYLDVFCPHYEDSVPEDKTERYVLYMVNFDGYSACDHTSKGFKRWECNRPHSPNGPLKFSEKFQLFTPFSLGFEFRPGREYFYISSAIPDNGRRSCLKLKVFVRPTNSCMKTIGVRDRVFDVNDKVENSLEPADDTVHESAEPSRGEN",,"insulin-mediated triacylglycerol (TG) stores, differentiated 3T3-L1, 10 min pretreatment with ephrin-A5 [4]: 10 % decrease; uptake of radioactive glucose, insulin-treated differentiated 3T3-L1, 10 min pretreatment with pre-clustered ephrin-A5 [4]: 20 % decrease; uptake of radioactive glucose, insulin-treated differentiated 3T3-L1, 90 min preincubation with pre-clustered ephrin-A5 [4]: 15 % decrease"
